Legend:
Experiment in all cases: relative viability (nuclei count vs DMSO), 5 days (fraction); higher = more cells survive
KN-93 = compound: CN(C/C=C/C1=CC=C(C=C1)Cl)CC2=CC=CC=C2N(CCO)S(=O)(=O)C3=CC=C(C=C3)OC [KN-93]
Procedure, shortened: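 Lung cancer cell lines received five library-drug doses (not always all listed) spaced by √10, pinned on vehicle-anchored 1536-well plates after an overnight stay at 37 °C. Five days later, with no medium change, nuclei were Hoechst-stained, imaged at 4× and counted with MetaXpress. Viability is treated-well nuclei relative to vehicle-well nuclei, as a median across plates. Passing plates had control CV below 25% and at least one doubling.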

KN-93 + Navitoclax = compound: CN(C/C=C/C1=CC=C(C=C1)Cl)CC2=CC=CC=C2N(CCO)S(=O)(=O)C3=CC=C(C=C3)OC [KN-93] + CC1(C)CCC(c2ccc(Cl)cc2)=C(CN2CCN(c3ccc(C(=O)NS(=O)(=O)c4ccc(N[C@H](CCN5CCOCC5)CSc5ccccc5)c(S(=O)(=O)C(F)(F)F)c4)cc3)CC2)C1 [Navitoclax] (partner 0.5 µM)
Procedure, shortened: (§1)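 Relative viability was taken as the ratio of nuclei in treated wells to nuclei in vehicle wells. Lung cancer cell lines in 1536-well plates received compounds by pin tool one day after seeding, either one drug alone or a fixed anchor-drug dose plus five library-drug doses (not always all listed) in √10 steps. Nuclei were counted on 4× images after 5 days of treatment, and values are medians of duplicate plates.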

KN-93 + Crizotinib = compound: CN(C/C=C/C1=CC=C(C=C1)Cl)CC2=CC=CC=C2N(CCO)S(=O)(=O)C3=CC=C(C=C3)OC [KN-93] + C[C@@H](Oc1cc(-c2cnn(C3CCNCC3)c2)cnc1N)c1c(Cl)ccc(F)c1Cl [Crizotinib] (partner 1 µM)
Procedure, shortened: as §1

KN-93 + Foretinib = compound: CN(C/C=C/C1=CC=C(C=C1)Cl)CC2=CC=CC=C2N(CCO)S(=O)(=O)C3=CC=C(C=C3)OC [KN-93] + COc1cc2c(Oc3ccc(NC(=O)C4(C(=O)Nc5ccc(F)cc5)CC4)cc3F)ccnc2cc1OCCCN1CCOCC1 [Foretinib] (partner 0.25 µM)
Procedure, shortened: as §1

KN-93 + Olaparib = compound: CN(C/C=C/C1=CC=C(C=C1)Cl)CC2=CC=CC=C2N(CCO)S(=O)(=O)C3=CC=C(C=C3)OC [KN-93] + O=C(c1cc(Cc2n[nH]c(=O)c3ccccc23)ccc1F)N1CCN(C(=O)C2CC2)CC1 [Olaparib] (partner 8 µM)
Procedure, shortened: as §1

KN-93 + Lapatinib = compound: CN(C/C=C/C1=CC=C(C=C1)Cl)CC2=CC=CC=C2N(CCO)S(=O)(=O)C3=CC=C(C=C3)OC [KN-93] + CS(=O)(=O)CCNCc1ccc(-c2ccc3ncnc(Nc4ccc(OCc5cccc(F)c5)c(Cl)c4)c3c2)o1 [Lapatinib] (partner 2 µM)
Procedure, shortened: as §1

KN-93 + Pictilisib = compound: CN(C/C=C/C1=CC=C(C=C1)Cl)CC2=CC=CC=C2N(CCO)S(=O)(=O)C3=CC=C(C=C3)OC [KN-93] + CS(=O)(=O)N1CCN(Cc2cc3nc(-c4cccc5[nH]ncc45)nc(N4CCOCC4)c3s2)CC1 [Pictilisib] (partner 1 µM)
Procedure, shortened: as §1

KN-93 + Alpelisib = compound: CN(C/C=C/C1=CC=C(C=C1)Cl)CC2=CC=CC=C2N(CCO)S(=O)(=O)C3=CC=C(C=C3)OC [KN-93] + Cc1nc(NC(=O)N2CCC[C@H]2C(N)=O)sc1-c1ccnc(C(C)(C)C(F)(F)F)c1 [Alpelisib] (partner 2 µM)
Procedure, shortened: as §1

KN-93 + Bortezomib = compound: CN(C/C=C/C1=CC=C(C=C1)Cl)CC2=CC=CC=C2N(CCO)S(=O)(=O)C3=CC=C(C=C3)OC [KN-93] + CC(C)C[C@H](NC(=O)[C@H](Cc1ccccc1)NC(=O)c1cnccn1)B(O)O [Bortezomib] (partner 0.002 µM)
Procedure, shortened: as §1

KN-93 + Linsitinib = compound: CN(C/C=C/C1=CC=C(C=C1)Cl)CC2=CC=CC=C2N(CCO)S(=O)(=O)C3=CC=C(C=C3)OC [KN-93] + C[C@]1(O)C[C@@H](c2nc(-c3ccc4ccc(-c5ccccc5)nc4c3)c3c(N)nccn32)C1 [Linsitinib] (partner 1 µM)
Procedure, shortened: as §1

Cell Line | relative viability (KN-93; 0.253 µM) | relative viability (KN-93; 2.53 µM) | relative viability (KN-93; 8 µM) | relative viability (KN-93 + Navitoclax; first compound 0.08 µM) | relative viability (KN-93 + Navitoclax; first compound 0.253 µM) | relative viability (KN-93 + Navitoclax; first compound 2.53 µM) | relative viability (KN-93 + Navitoclax; first compound 8 µM) | relative viability (KN-93 + Crizotinib; first compound 2.53 µM) | relative viability (KN-93 + Crizotinib; first compound 8 µM) | relative viability (KN-93 + Foretinib; first compound 0.253 µM) | relative viability (KN-93 + Foretinib; first compound 2.53 µM) | relative viability (KN-93 + Foretinib; first compound 8 µM) | relative viability (KN-93 + Olaparib; first compound 0.08 µM) | relative viability (KN-93 + Olaparib; first compound 0.253 µM) | relative viability (KN-93 + Olaparib; first compound 2.53 µM) | relative viability (KN-93 + Olaparib; first compound 8 µM) | relative viability (KN-93 + Lapatinib; first compound 2.53 µM) | relative viability (KN-93 + Lapatinib; first compound 8 µM) | relative viability (KN-93 + Pictilisib; first compound 0.253 µM) | relative viability (KN-93 + Pictilisib; first compound 2.53 µM) | relative viability (KN-93 + Pictilisib; first compound 8 µM) | relative viability (KN-93 + Alpelisib; first compound 0.08 µM) | relative viability (KN-93 + Alpelisib; first compound 0.253 µM) | relative viability (KN-93 + Alpelisib; first compound 2.53 µM) | relative viability (KN-93 + Alpelisib; first compound 8 µM) | relative viability (KN-93 + Bortezomib; first compound 0.08 µM) | relative viability (KN-93 + Bortezomib; first compound 0.253 µM) | relative viability (KN-93 + Bortezomib; first compound 2.53 µM) | relative viability (KN-93 + Bortezomib; first compound 8 µM) | relative viability (KN-93 + Linsitinib; first compound 0.08 µM) | relative viability (KN-93 + Linsitinib; first compound 0.253 µM) | relative viability (KN-93 + Linsitinib; first compound 2.53 µM) | relative viability (KN-93 + Linsitinib; first compound 8 µM) | relative viability (KN-93; 0.08 µM) | relative viability (KN-93 + Crizotinib; first compound 0.08 µM) | relative viability (KN-93 + Crizotinib; first compound 0.253 µM) | relative viability (KN-93 + Foretinib; first compound 0.08 µM) | relative viability (KN-93 + Lapatinib; first compound 0.08 µM) | relative viability (KN-93 + Lapatinib; first compound 0.253 µM)
EBC-1 | 1.03 | 1.01 | 0.693 | 0.375 | 0.337 | 0.274 | 0.178 | 0.216 | 0.192 | 0.0885 | 0.12 | 0.124 | 0.652 | 0.69 | 0.652 | 0.52 | 0.183 | 0.233 | 0.317 | 0.343 | 0.224 | 0.821 | 0.889 | 0.599 | 0.497 | 0.577 | 0.492 | 0.426 | 0.243 | 0.905 | 0.907 | 1.07 | 0.869 | – | – | – | – | – | –
NCI-H1299 | 1.1 | 1.04 | 0.796 | 1.07 | 1.04 | 1.11 | 1.02 | 0.891 | 0.514 | 1.13 | 1.14 | 0.904 | 0.941 | 1.06 | 1 | 0.594 | 0.952 | 0.708 | 1.03 | 0.656 | 0.267 | 0.951 | 1.15 | 1.09 | 1.07 | 0.969 | 1.01 | 1.05 | 0.969 | 0.959 | 1.22 | 1.02 | 0.861 | 1.01 | 0.885 | 1.14 | 1.12 | 0.992 | 1.04
